Assays:
[1] = ABTS radical-scavenging ability; assay type: biochemical
Method: After dissolving 7.4 mM 2,2-azino-bis(3-ethylbenzthiazoline-6-sulfonic acid) and 2.6 mM potassium persulfate respectively in distilled water and mixing at 1:1, ABTS^+ is formed by conducting reaction at room temperature in the dark for 24 hours. 24 hours later, the ABTS solution was diluted to purified water to adjust absorbance at 732 nm to 0.7. Then, after adding 10 μL of a test substance to 190 μL of the ABTS solution and conducting reaction in the dark for 10 minutes, absorbance was measured at 732 nm. The ABTS radical-scavenging ability of Example 1, Comparative Example 1 and Comparative Example 2 of different darae species at different concentrations was calculated from the measured absorbance.

[2] = DPPH radical-scavenging ability; assay type: biochemical
Method: DPPH [[…]] is a free-radical compound. […] Accordingly, antioxidant activity can be compared from the ratio of decolorized DPPH radicals. After mixing 50 μL of a 0.36 mM DPPH solution and 50 μL of a test substance dissolved in ethanol at 1:1 and conducting reaction at room temperature in the dark for 30 minutes, absorbance was measured at 540 nm. The DPPH radical-scavenging ability of Example 1, Comparative Example 1 and Comparative Example 2 of different darae species at different concentrations was calculated from the measured absorbance.

Compound | ABTS radical-scavenging ability IC50 [1] [mg/mL] | DPPH radical-scavenging ability IC50 [2] [mg/mL]
Cc1c(C)c2c(c(C)c1O)CCC(C)(C(=O)O)O2 (centres unmarked) [Trolox] | 0.10 ± 0.01 | 
O=C1O[C@H]([C@@H](O)CO)C(O)=C1O [L-Ascorbic acid] |  | 0.03 ± 0.01

— patent publication US20220193163A1, “COMPOSITION COMPRISING ACTINIDIA POLYGAMA EXTRACT FOR ALLEVIATING SKIN DAMAGE OR MOISTURIZING SKIN” (G&P BIOSCIENCE CO., LTD., priority 2019, published 2022)
